Where two headings read alike, the source gives them in different places. Each block holds one compound with its values, some of them ahead of it.
Key:
[1] = Compatibility investigation of binary mixtures with vitamin B12 by DSC; assay type: physicochemical; set-up: key to Compatibility: ++ good compatibility expected below the stated temperature; + compatibility below the stated temperature; ++/− indifferent compatibility, possibly good compatibility below the stated temperature; +/−− indifferent compatibility, appears to be compatible below the stated temperature; −(−−−) (strong) interaction, incompatible; −(−−−) (strong) interaction, incompatible; details: for Compatibility: binary mixture with vitamin B12, DSC, various gases and temperatures, stated temperature is 60° C. where given; for Comments: binary mixture with vitamin B12, cells wrap, all except Drospirenone and Ethinylestradiol ('very O2-sensitive') continue 'moisture-sensitive'
Description: Both vitamin B12 and 5-methyl-(6S)-tetrahydrofolate are unstable in the presence of atmospheric oxygen and humidity. […] Measurements of the incompatibilities between the intended formulation ingredients were carried out by a thermoanalytical method (DSC, differential scanning calorimetry). This allows incompatibilities to be recognized through low enthalpies of fusion and melting temperatures. These are caused for example by a reduced proportion of crystalline substance and the increase in impurities. In the determination, binary mixtures of excipients or active ingredients in each case with vitamin B12 were investigated, and the compatibility was examined under the influence of various gases and temperatures. […]

[2] = intake at the right time around conception; cited from earlier work
[3] = Description: The investigated formulation was prepared (process 2) by mixing the ingredients, granulating with the part of the corn starch used as binder, absorbing the 5-methyl-(6S)-tetrahydrofolate after completion of the granulation process, renewed mixing and tableting. By comparison therewith, polyvinylpyrrolidone was added as binder instead of corn starch to the formulation by process 3.
The difference between process 1 and process 2 derives from the time at which the 5-methyl-(6S)-tetrahydrofolate was added during the preparation of the investigated tablet. In process 1, the 5-methyl-(6S)-tetrahydrofolate was present in the mixture even during the granulation, whereas in process 2 it was absorbed only after the granulation.

[4] = 50 rpm, 37° C., 0.03 percent aqueous ascorbic acid solution
Description: For this purpose, the tablets were investigated in an in vitro dissolution test using a USP paddle apparatus at 50 rpm and 37° C. in a 0.03 percent aqueous ascorbic acid solution.

[5] = one month
Text: An oral formulation is normally prepared by granulation, tableting and film-coating.

[6] = of Metafolin content per tablet immediately after preparation
[7] = per tablet, of specified content 100%, immediately after preparation, average
[8] = vials closed, listed as 5-methyl-(6S)-tetrahydrofolate

Compatibility [1]: +
Comments [1]: O2-sensitive,
Compound: OC[C@H]1O[C@@H](O[C@H]2[C@H](O)[C@@H](O)C(O)O[C@@H]2CO)[C@H](O)[C@@H](O)[C@H]1O (stereo partly drawn) [Lactose]

Compatibility [1]: +
Comments [1]: O2-sensitive
Compound: C[C@]12CCC(=O)C=C1[C@@H]1C[C@@H]1[C@H]1[C@@H]3[C@@H]4C[C@@H]4[C@@]4(CCC(=O)O4)[C@@]3(C)CC[C@@H]12 [Drospirenone]

Compound: Nc1nc2ncc(CNc3ccc(C(=O)N[C@@H](CCC(=O)O)C(=O)O)cc3)nc2c(=O)[nH]1 [folic acid]
reduction of neural tube defects [2]: 50-70%

Distribution coefficient, absorption (process 2) [3, 6]: 2.5
Distribution coefficient, granulation (process 1) [3, 6]: 6.1
Metafolin content granulation (process 1) ([3]; per tablet, immediately after preparation, average): 88.5%
Metafolin content absorption, PVP (process 3) [3, 7]: 90.5%
Metafolin content absorption, corn starch (process 2) [3, 7]: 96.1%
5-Methyl-(6S)-tetrahydrofolate process 1 dissolution [%] ([4]; 0 min): 0%
5-Methyl-(6S)-tetrahydrofolate process 2 dissolution [%] ([4]; 0 min): 0%
5-Methyl-(6S)-tetrahydrofolate process 1 dissolution [%] ([4]; 10 min): 59.2%
5-Methyl-(6S)-tetrahydrofolate process 2 dissolution [%] ([4]; 10 min): 81.4%
5-Methyl-(6S)-tetrahydrofolate process 1 dissolution [%] ([4]; 15 min): 66.8%
5-Methyl-(6S)-tetrahydrofolate process 2 dissolution [%] ([4]; 15 min): 89.3%
5-Methyl-(6S)-tetrahydrofolate process 1 dissolution [%] ([4]; 30 min): 73.1%
5-Methyl-(6S)-tetrahydrofolate process 2 dissolution [%] ([4]; 30 min): 91.3%
5-Methyl-(6S)-tetrahydrofolate process 1 dissolution [%] ([4]; 45 min): 76.7%
5-Methyl-(6S)-tetrahydrofolate process 2 dissolution [%] ([4]; 45 min): 91.1%
5-Methyl-(6S)-tetrahydrofolate process 1 dissolution [%] ([4]; 60 min): 75.8%
5-Methyl-(6S)-tetrahydrofolate process 2 dissolution [%] ([4]; 60 min): 91.2%
Metafolin content 25° C./60% rH absorption (process 2) ([5]; vials closed): 92.5%
Metafolin content 25° C./60% rH granulation (process 1) ([5]; vials closed): 74.5%
Metafolin content 40° C./75% rH absorption (process 2) ([5]; vials closed): 90.1%
Metafolin content 40° C./75% rH granulation (process 1) ([5]; vials closed): 58.9%
Metafolin content 40° C./75% rH absorption (process 2) [5, 8]: above 90%
Metafolin content 40° C./75% rH granulation (process 1) [5, 8]: ~60%
Metafolin content 25° C./60% rH absorption PVP (process 3) ([5]; vials open): 89.5%
Metafolin content 25° C./60% rH absorption corn starch (process 2) ([5]; vials open): 92.1%
Metafolin content 25° C./60% rH granulation (process 1) ([5]; vials open): 63.2%
Metafolin content 40° C./75% rH absorption PVP (process 3) ([5]; vials open): 37.7%
Metafolin content 40° C./75% rH absorption corn starch (process 2) ([5]; vials open): 67.7%
Metafolin content 40° C./75% rH granulation (process 1) ([5]; vials open): 43.4%
Compound: CN1c2c(nc(N)[nH]c2=O)NC[C@@H]1CNc1ccc(C(=O)N[C@@H](CCC(=O)O)C(=O)O)cc1 [Metafolin]

Compound: Magnesium stearate
Compatibility [1]: ++/−
Comments [1]: O2-sensitive,
